From PubChem BioAssay AID977630 (Broad Institute, 2014)
Results filed as inconclusive are left out. Activity calls are given as the source filed them.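 Rule for the calls: active = Normal-ribosome green reporter loss at least double humanized-ribosome red reporter loss, with overall culture growth inhibition under a set limit; inconclusive = no clear call, values can overlap the other calls; inactive = the rest.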

Test system: E. coli wild-type GFP growth, mixed culture, 24 h
Assay: growth inhibition of wild-type GFP E. coli, H38-humanized RFP comparator, dose response, H38 mutant RFP vs wild-type GFP, cherry-pick (AID 977630);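 note: wild-type GFP strain mixed equally with humanized-ribosome H38 mutant expressing RFP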
[1] = E. coli mixed culture total OD600 growth, 24 h

Structure (SMILES) | AC50 | AC50 [1]
Cc1ccc(NC(=O)c2ccc([N+](=O)[O-])s2)cc1S(=O)(=O)N1CCOCC1 | > 100 µM (inactive) | > 100 µM
Cc1[nH]nc2c1C(c1ccc(F)cc1)N(Cc1ccccc1)C2=O (configuration not stated) | > 100 µM (inactive) | > 100 µM
C[C@]12CCC(=O)C[C@H]1CC[C@@H]1[C@@H]2CC[C@]2(C)C(=O)CC[C@@H]12 | > 100 µM (inactive) | –
FC(F)(F)c1ccc(Cl)c(-n2c(Cc3cccs3)n[nH]c2=S)c1 | > 100 µM (inactive) | –
O=C(O)c1ccc2c(c1)N(Cc1ccccc1)C(=O)c1ccccc1S2 | > 100 µM (inactive) | > 100 µM
CN(C)S(=O)(=O)c1ccc(Cl)c(C(=O)OCC(=O)NC(=O)c2cccn2C)c1 | > 100 µM (inactive) | –
CCOC(=O)C(CC)Sc1cc(C)nc2ccc(OC)cc12 (configuration not stated) | – | > 100 µM
CCc1nc2ccccc2n1CCc1ccccc1 | > 100 µM (inactive) | –
CN1CCN(c2nc(Nc3ccc(O)cc3)nc3ccccc23)CC1 | > 100 µM (inactive) | –
O=C(O)c1ccc(Oc2ccc([N+](=O)[O-])cc2)c([N+](=O)[O-])c1 | > 100 µM (inactive) | –
Cc1cc(CNC(=O)c2cc(-c3ccccc3)nc3ccccc23)nn1C | > 100 µM (inactive) | –
C=CCNC(=O)c1ccccc1CCc1ccccc1 | > 100 µM (inactive) | –
O=C(COc1cc(F)ccc1[N+](=O)[O-])NCCCc1ccccc1 | > 100 µM (inactive) | –
CC(=O)N(CCC1(c2ccc(C)cc2)CCOC(C(C)C)C1)Cc1ccco1 (configuration not stated) | > 100 µM (inactive) | –
COc1cccc(CC(=O)OC(C)C(=O)NCc2ccc3c(c2)OCO3)c1 (configuration not stated) | > 100 µM (inactive) | –
C[C@@H]1CCCCO[C@H](CN(C)C(=O)CCCN(C)C)[C@H](C)CN([C@@H](C)CO)C(=O)c2cc(NC(=O)Nc3cccc4ccccc34)ccc2O1 | – | > 100 µM
COC(=O)c1c(NC(=O)CCC(=O)O)sc(Cc2ccccc2)c1C | 3.63 µM | –
O=C(Nc1ccn(Cc2ccc(Cl)cc2)n1)c1ccccc1 | – | > 100 µM
Cc1cc(C(=O)COC(=O)CNC(=O)c2ccccc2)c(C)n1CC1CCCO1 (configuration not stated) | > 100 µM (inactive) | –
CCC1(CC)NC(=O)N(CC(=O)N2N=C(c3ccc(Cl)cc3)CC2c2ccco2)C1=O (configuration not stated) | > 100 µM (inactive) | –
CC(=O)Nc1ccc(-c2ccnc3c2CC(C)(C(=O)Nc2ccc4c(c2)OCO4)O3)cc1 (configuration not stated) | > 100 µM (inactive) | –
CCN(CC)S(=O)(=O)c1cccc(NC(=O)CNc2cccc(S(=O)(=O)N3CCCC3)c2)c1 | > 100 µM (inactive) | –
CC1Cc2ccccc2N1C(=O)CN1C(=O)NC(C)(CCc2ccccc2)C1=O (configuration not stated) | – | > 100 µM

Structure (SMILES) | AC50 | AC50 [1]
CCCNc1ccc(C(=O)OCC)cc1[N+](=O)[O-] | > 100 µM (inactive) | > 100 µM
Nc1nc(Nc2ccccc2F)nc(N2CCOCC2)c1[N+](=O)[O-] | > 100 µM (inactive) | –
Nc1[nH]c(C(=O)c2ccccc2)c(-c2ccc(Cl)cc2)c1C(=O)NCCc1c[nH]c2ccccc12 | > 100 µM (inactive) | > 100 µM
CCCCn1c(NS(=O)(=O)c2ccc(C)cc2)c(C(=O)OCC)c2nc3ccccc3nc21 | > 100 µM (inactive) | > 100 µM
O=C(COc1ccccc1Cl)Nc1nc(-c2ccncc2)cs1 | > 100 µM (inactive) | –
CC(C)(C)N(Cc1ccccc1)C(=O)COC(=O)Cn1cnc2ccccc2c1=O | > 100 µM (inactive) | –
O=S1(=O)c2ccc(Br)cc2OCCC2CCCCN21 (configuration not stated) | > 100 µM (inactive) | > 100 µM
CC(C)(C)C1CCC(C(=O)OCC(=O)N2CCN(C(=O)c3ccco3)CC2)CC1 (configuration not stated) | > 100 µM (inactive) | –
Cc1cc(C)n(CC(O)COc2ccc3ccccc3c2)n1 (configuration not stated) | > 100 µM (inactive) | > 100 µM
COC(=O)c1ccc2nc(-c3ccc(OC)c(OC)c3)c(Cc3ccc(C)cc3)n2c1 | > 100 µM (inactive) | –
COc1ccc(NC(=O)CN(c2ccccc2OC)S(=O)(=O)c2cccs2)cc1Cl | > 100 µM (inactive) | –
CNC(=O)c1ccsc1NC(=O)c1ccc(S(=O)(=O)N2CCc3ccccc32)cc1 | – | > 100 µM
COc1ccc(C2CC(c3cccs3)=Nc3ccccc3S2)cc1 (configuration not stated) | – | > 100 µM
Cc1ccc(NC(=O)c2ccc([N+](=O)[O-])o2)c(C)c1 | > 100 µM (inactive) | –
COCC#Cc1ccc2c(c1)O[C@@H](CN(C)S(=O)(=O)c1cccc(F)c1)[C@@H](C)CN([C@H](C)CO)S2(=O)=O | – | > 100 µM
COc1ccc(OC)c(-c2csc(NC(=O)C3COc4ccccc4O3)n2)c1 (configuration not stated) | > 100 µM (inactive) | –
Cc1nc(SCC(=O)Nc2ccc3c(c2)OCCO3)nc(C)c1C | > 100 µM (inactive) | > 100 µM
COc1cccc(NC(=O)CSc2nc3c(sc4ccccc43)c(=O)n2CCN(C)C)c1 | > 100 µM (inactive) | –
CCOCCCNC(=O)C(NC(=O)c1ccccc1O)c1ccc(C)cc1 (configuration not stated) | > 100 µM (inactive) | > 100 µM
CC1CCN(C(=O)COC(=O)c2ccccc2NC(=O)c2ccco2)CC1 | > 100 µM (inactive) | –
Cc1cccc(NC(=O)c2c(C)nn(-c3ccccc3)c2Cl)c1 | – | 41.6 µM
O=S(=O)(NCc1ccc2c(c1)OCO2)c1ccc2c(c1)oc1ccccc12 | > 100 µM (inactive) | 27.2 µM
C=CCN(CC=C)C(=O)c1ccc2nc(Cc3ccc(OC)c(OC)c3)oc2c1 | > 100 µM (inactive) | –

Structure (SMILES) | AC50 | AC50 [1]
Cc1ccccc1-n1c([C@@H]2C[C@H]2c2ccccc2)n[nH]c1=S | > 100 µM (inactive) | –
CC(C)(C)c1ccc(-c2noc(CCC(=O)NCc3ccco3)n2)cc1 | > 100 µM (inactive) | –
O=c1[nH]c(C2CCN(S(=O)(=O)c3ccc4c(c3)OCCO4)CC2)nc2c1nnn2Cc1ccccc1F | > 100 µM (inactive) | > 100 µM
CCOc1ncccc1C(=O)OCC(=O)NCCCc1ccccc1 | > 100 µM (inactive) | –
COc1ccc(-c2csc(NC(=O)c3ccccc3S(C)(=O)=O)n2)cc1 | – | > 100 µM
COc1cccc(CNC(=O)CCSCc2ccccc2F)c1 | > 100 µM (inactive) | > 100 µM
CC(=O)Nc1ccc(CNc2nc(NCCN(C)C)nc3cc(-c4ccccc4)sc23)cc1 | > 100 µM (inactive) | –
CC1CCCN(c2ccc(C(=O)NCCc3ccccc3)cn2)C1 (configuration not stated) | > 100 µM (inactive) | > 100 µM
COc1ccc(CSc2nc3ccccc3c(=O)n2CCCN2CCOCC2)cc1F | > 100 µM (inactive) | –
COc1ccc(C(NC(=O)C2CCN(CCOc3ccc(Cl)cc3Cl)CC2)c2ccccc2C)cn1 (configuration not stated) | – | > 100 µM
COc1cc(OC)cc(C(=O)Nc2ccc(C(=O)Nc3ccccc3OC)cc2)c1 | > 100 µM (inactive) | –
O=C(Nc1ccc(Br)cc1)c1cccnc1N1CCCCC1 | – | > 100 µM
COc1cc(CC(=O)Nc2nc(C)cs2)cc(OC)c1OC | – | > 100 µM
COCC(C)NC(=O)c1nn(Cc2ccccc2)c(=O)c2ccccc12 (configuration not stated) | > 100 µM (inactive) | > 100 µM
Cc1ccc(S(=O)(=O)NCc2c(-c3ccccc3)noc2C)cc1 | > 100 µM (inactive) | –
CCCc1c(C(=O)Nc2ccc(OC)cc2)cnn1-c1ccccc1 | > 100 µM (inactive) | > 100 µM
CCNC(=O)C1(C)CCCN(Cc2cccc3ccccc23)C1 (configuration not stated) | > 100 µM (inactive) | –
CCc1cccc(NC(=O)c2ccc3c(=O)n4c(nc3c2)CCCCC4)c1 | > 100 µM (inactive) | –
O=C(CCNC(=O)c1ccco1)Nc1cccc(Br)c1 | > 100 µM (inactive) | –
CCc1cc(C(=O)N2CCCC(C(=O)c3cccc4ccccc34)C2)n(C)n1 (configuration not stated) | > 100 µM (inactive) | –
Cc1ccc(-c2nc3ccc(NS(=O)(=O)c4ccccc4)cc3[nH]2)o1 | > 100 µM (inactive) | 33.6 µM
COc1ccc2nc(SCC(=O)Nc3ccccc3)[nH]c2c1 | > 100 µM (inactive) | > 100 µM
COc1cccc(C(=O)Nc2nnc(S(=O)(=O)N(C)Cc3ccccc3)s2)c1 | > 100 µM (inactive) | 50.9 µM

Structure (SMILES) | AC50 | AC50 [1]
Cc1cc(C(=O)NCCC2=CCCCC2)ccc1[N+](=O)[O-] | > 100 µM (inactive) | –
CCN(c1ccccc1)S(=O)(=O)c1ccc(Cl)c(NC(=O)CSc2n[nH]c(N)n2)c1 | > 100 µM (inactive) | > 100 µM
Fc1ccc(-c2nc3ccc(Cl)cn3c2Cc2cccc(Cl)c2)cc1 | – | > 100 µM
O=C(Nc1cccc(O)c1)c1cccc(S(=O)(=O)Nc2cccc(O)c2)c1 | > 100 µM (inactive) | > 100 µM
O=C(c1cccs1)c1c[nH]cc1-c1ccccc1 | – | > 100 µM
Cc1cccc(C(=O)NCC(=O)N2CC=C(c3ccccc3)CC2)c1 | > 100 µM (inactive) | –
O=C(O)CC(CC(=O)Nc1ccc(Oc2ccccc2)cc1)c1ccccc1 (configuration not stated) | > 100 µM (inactive) | > 100 µM
S=c1nc(-c2cc(Cl)cc(Cl)c2)[nH][nH]1 | > 100 µM (inactive) | –
COc1ccc(N(C)S(=O)(=O)c2cccc(C(=O)NC3CCCCC3C)c2)cc1 (configuration not stated) | > 100 µM (inactive) | –
Cc1noc(C)c1COc1cccc(C(=O)N2CCc3ccccc32)c1 | > 100 µM (inactive) | –
Cc1ccc(NS(=O)(=O)c2ccc3c(c2)CCC(=O)N3)cc1C | > 100 µM (inactive) | –
O=C(CCC1CCCN(C(=O)c2ccsc2)C1)N1CCN(c2ccccn2)CC1 (configuration not stated) | > 100 µM (inactive) | –
O=C(Nc1ccc2nc(-c3cccnc3)[nH]c2c1)c1ccco1 | > 100 µM (inactive) | –
CN(c1ccccc1)S(=O)(=O)c1cccc(NC(=O)CCNC(=O)c2ccc([N+](=O)[O-])cc2)c1 | > 100 µM (inactive) | > 100 µM
CCOc1cccc(-c2cc(-c3n[nH]c(=S)n3CC)c3ccccc3n2)c1 | > 100 µM (inactive) | –
Cc1noc(NS(=O)(=O)c2ccc(NC(=O)c3cc(-c4ccccc4Cl)nc4ccccc34)cc2)c1C | > 100 µM (inactive) | > 100 µM
O=C1c2ccccc2CSc2c(O)cccc21 | > 100 µM (inactive) | 50.8 µM
CCCC(=O)Nc1sc2c(c1C(=O)Nc1ccccn1)CCCC2 | > 100 µM (inactive) | > 100 µM
Cc1ccsc1C(=O)OCC(=O)N1CCc2ccccc2C1 | > 100 µM (inactive) | –
Cc1ccc(S(=O)(=O)N2CCOCC2)cc1NC(=O)COc1ccc(-c2nnco2)cc1 | > 100 µM (inactive) | –
COc1ccc(NC(=O)c2cccs2)cc1C(=O)N1CCN(c2ccccc2)CC1 | > 100 µM (inactive) | –
Cc1cccc(NC(=O)c2sc3nc(-c4ccccc4)cn3c2C)n1 | – | > 100 µM
